Data as given in the supplement of paper PMC10307832.

What was measured:
Assay in all cases: relative viability (nuclei count vs DMSO), 5 days (fraction); higher = more cells survive
[1] = compound: C[C@@H](N)c1ccc(C(=O)Nc2ccnc3[nH]ccc23)cc1 + C[C@]1(O)C[C@@H](c2nc(-c3ccc4ccc(-c5ccccc5)nc4c3)c3c(N)nccn32)C1 [Linsitinib] (partner 1 µM)
Summary of the method: (§1)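 Lung cancer cell lines in 1536-well plates got either a single drug or a fixed anchor-drug dose together with five library-drug doses (not always all listed) in √10 steps, by pin tool, on the day after seeding. Nuclei were counted after 5 days, and relative viability is the treated-to-vehicle ratio of nuclei counts. Values are medians of duplicate plates.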

[2] = compound: C1CNCCC1C2=CC(=NN2)C3=CC=NC=C3 + O=C(CCCCCCC(=O)Nc1ccccc1)NO [Vorinostat] (partner 1 µM)
Summary of the method: as §1

[3] = compound: O[C@H]1CC[C@H](Nc2ncc3nc(Nc4c(F)cc(F)cc4F)n([C@H]4CCOC4)c3n2)CC1 [Tanzisertib] + N=C(N)NC(=N)NCCc1ccccc1 [Phenformin] (partner 250 µM)
Summary of the method: as §1

[4] = compound: C1CNCCC1C2=CC(=NN2)C3=CC=NC=C3 + Cc1cc(Nc2cc(N3CCN(C)CC3)nc(Sc3ccc(NC(=O)C4CC4)cc3)n2)n[nH]1 [Tozasertib] (partner 0.1 µM)
Summary of the method: as §1

Cell Line | relative viability ([1]; first compound 0.04 µM) | relative viability ([1]; first compound 0.1265 µM) | relative viability ([1]; first compound 0.4 µM) | relative viability ([1]; first compound 1.265 µM) | relative viability ([1]; first compound 4 µM) | relative viability ([2]; first compound 0.08 µM) | relative viability ([2]; first compound 0.8 µM) | relative viability ([2]; first compound 2.53 µM) | relative viability ([2]; first compound 8 µM) | relative viability ([3]; first compound 0.08 µM) | relative viability ([3]; first compound 0.253 µM) | relative viability ([3]; first compound 0.8 µM) | relative viability ([3]; first compound 2.53 µM) | relative viability ([3]; first compound 8 µM) | relative viability ([4]; first compound 0.08 µM) | relative viability ([4]; first compound 0.8 µM) | relative viability ([4]; first compound 2.53 µM) | relative viability ([4]; first compound 8 µM)
NCI-H520 | 0.97 | 1.07 | 1.05 | 1.26 | 1.02 | 0.677 | 0.777 | 0.746 | 0.7 | 0.734 | 0.662 | 0.599 | 0.609 | 0.663 | 0.395 | 0.378 | 0.457 | 0.457
NCI-H596 | 1.06 | 1.05 | 1.22 | 1.09 | 1.01 | 0.73 | 0.417 | 0.638 | 0.589 | 0.968 | 0.626 | 0.882 | 0.675 | 0.602 | 0.874 | 1.04 | 0.814 | 1.01
NCI-H647 | 1.14 | 1.18 | 1.22 | 1.28 | 0.976 | 0.572 | 0.739 | 0.632 | 0.635 | 0.531 | 0.703 | 0.481 | 0.487 | 0.555 | 0.263 | 0.413 | 0.297 | 0.263
NCI-H650 | 0.723 | 0.751 | 0.841 | – | 0.658 | 0.433 | 0.437 | 0.434 | 0.546 | 0.472 | 0.476 | 0.461 | 0.526 | 0.327 | 0.738 | 0.729 | 0.799 | 0.793
NCI-H661 | 0.558 | 0.582 | 0.623 | 0.441 | 0.508 | 0.745 | 0.845 | 0.804 | 0.78 | 0.32 | 0.256 | 0.24 | 0.285 | 0.284 | 0.38 | 0.367 | 0.356 | 0.345
NCI-H727 | 0.135 | 0.559 | 0.493 | 0.736 | 0.785 | 1.25 | 1.08 | 1.29 | 1.18 | 0.581 | 0.504 | 0.458 | 0.497 | 0.465 | 0.613 | 0.51 | 0.87 | 0.545
NCI-H838 | 0.945 | 0.905 | 0.796 | 0.533 | 0.367 | 0.763 | 0.744 | 0.744 | 0.688 | 0.666 | 0.608 | 0.628 | 0.587 | 0.541 | 0.314 | 0.292 | 0.28 | 0.284
NCI-H1355 | 0.853 | 0.723 | 0.833 | – | 0.771 | 0.637 | 0.629 | 0.788 | 0.637 | 0.517 | 0.44 | 0.503 | 0.472 | 0.431 | 0.556 | 0.595 | 0.57 | 0.622
NCI-H1395 | 1.05 | 1.14 | 1.24 | – | 0.878 | 0.668 | 0.597 | 0.842 | 0.792 | 0.481 | 0.454 | 0.427 | 0.456 | 0.396 | 0.731 | 0.643 | 0.813 | 0.766
